This assay has as its target T1, human GPR43 receptor (hGPR43) (Homo sapiens, UniProt O15552).
T1 construct: expressed in transfected cells
T1 sequence (O15552 1-330): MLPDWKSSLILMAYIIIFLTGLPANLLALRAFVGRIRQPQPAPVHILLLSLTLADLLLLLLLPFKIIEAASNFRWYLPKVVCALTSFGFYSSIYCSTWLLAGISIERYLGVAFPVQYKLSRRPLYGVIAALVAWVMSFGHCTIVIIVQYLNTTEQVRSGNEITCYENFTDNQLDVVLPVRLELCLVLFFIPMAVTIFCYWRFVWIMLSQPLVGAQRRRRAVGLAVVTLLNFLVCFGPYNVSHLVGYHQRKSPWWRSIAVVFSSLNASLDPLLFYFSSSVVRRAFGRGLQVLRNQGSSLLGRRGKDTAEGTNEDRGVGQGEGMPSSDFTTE
Nature of the assay: GTPγS binding assay (SPA method). Type of assay: biochemical. The note with it: membranes expressing hGPR43; assay performed in the presence of SCFA; read-out: EC50 (nM) in GTPγ35S assay. The source says: The following assay can be used for determination of GPR43 activation. When a GPCR is in its active state, either as a result of ligand binding or constitutive activation, the receptor couples to a G protein and stimulates the release of GDP and subsequent binding of GTP to the G protein. The alpha subunit of the G protein-receptor complex acts as a GTPase and slowly hydrolyses the GTP to GDP, at which point the receptor normally is deactivated. Activated receptors continue to exchange GDP for GTP. […] The assay uses the ability of GPCR to stimulate [^35S]GTPγS binding to membranes expressing the relevant receptors. The assay can, therefore, be used in the direct identification method to screen candidate compounds to endogenous or not endogenous GPCR.
Membrane extracts were prepared from cells expressing the human GPR43 receptor (hGPR43) as follows: the medium was aspirated and the cells were scraped from the plates in Ca^++ and Mg^++-free Phosphate-buffered saline (PBS). The cells were then centrifuged for 3 min at 1500 g and the pellets were resuspended in buffer A (15 mM Tris-HCl pH 7.5, 2 mM MgCl2, 0.3 mM EDTA, 1 mM EGTA) and homogenized in a glass homogenizer. […] Protein content was assayed by the Folin method.
The assay was performed in the presence of SCFA, and was used to determine the activity of the compounds of the invention.
The [^35S]GTPγS assay was incubated in 20 mM HEPES pH7.4, 100 mM NaCl, 10 μg/ml saponin, 30 mM of MgCl2, 10 μM of GDP, 5 μg membrane-expressing hGPR43, 250 μg of wheatgerm agglutinin beads (Amersham, ref: RPNQ001), a range concentration of compounds (from 30 μM to 1 nM) in a final volume of 100 μl for 30 min at room temperature. The SCFA propionate was used at 1 mM final concentration as positive control. The plates were then centrifuged for 10 minutes at 2000 rpm, incubated for 2 hours at room temperature and counted for 1 min in a scintillation counter (TopCount, PerkinElmer).
In general terms: Binding of GTPγS marks nucleotide exchange on a G protein.

Experimental findings from US20110230477A1, “COMPOUNDS, PHARMACEUTICAL COMPOSITION AND METHODS FOR USE IN TREATING METABOLIC DISORDERS” (Euroscreen S.A., priority 2008, published 2011) are described below.

The structures appear in SMILES notation.

What is called EC50 is the concentration giving half of the maximal effect.

In the case of `CN(C(=O)[C@@H](CC(=O)O)Cc1ccccc1)c1nc(-c2ccccc2-c2ccccc2)cs1` [Compound 111, (R)-4-((4-([1,1′-biphenyl]-2-yl)thiazol-2-yl)(methyl)amino)-3-benzyl-4-oxobutanoic acid], the EC50 stood at 393 nM.
For the compound `CN(C(=O)C(CC(=O)O)Cc1ccco1)c1nc(-c2ccccc2Cl)cs1` (centres unmarked) [Compound 143], the EC50 came out at 77 nM.
Regarding `O=C(O)C[C@@H](Cc1ccccc1)C(=O)Nc1nc(-c2ccccc2)ns1` [Compound 11, (R)-3-benzyl-4-oxo-4-(3-phenyl-1,2,4-thiadiazol-5-ylamino)butanoic acid], the EC50 was determined as 680 nM.
For `CN(C(=O)[C@@H](CC(=O)O)Cc1ccccc1)c1nc(-c2ccccc2-c2ccoc2)cs1` [Compound 135, (R)-3-benzyl-4-((4-(2-(furan-3-yl)phenyl)thiazol-2-yl)(methyl)amino)-4-oxobutanoic acid], the EC50 came out at 796 nM.
With `CN(C(=O)[C@@H](CC(=O)O)Cc1ccccc1)c1nc(-c2cc(Cl)cc(Cl)c2Cl)cs1` [Compound 175, (R)-3-benzyl-4-(methyl(4-(2,3,5-trichlorophenyl)thiazol-2-yl)amino)-4-oxobutanoic acid] the figure was 57 nM.
In the case of `CN(C(=O)[C@@H](CC(=O)O)Cc1ccccc1)c1nc(-c2ccccc2Cl)c(Cl)s1` [Compound 21, (R)-3-benzyl-4-((5-chloro-4-(2-chlorophenyl)thiazol-2-yl)(methyl)amino)-4-oxobutanoic acid], the EC50 worked out at 260 nM.
With `COC(=O)CCN(C(=O)[C@@H](CC(=O)O)Cc1ccccc1)c1nc(-c2ccccc2Cl)cs1` [Compound 126, (R)-3-benzyl-4-((4-(2-chlorophenyl)thiazol-2-yl)(3-methoxy-3-oxopropyl)amino)-4-oxobutanoic acid], the EC50 turned out to be 183 nM.
Regarding `O=C(O)/C=C\C(=O)Nc1nc(-c2ccccc2Cl)cs1` [Compound 10, (Z)-4-(4-(2-chlorophenyl)thiazol-2-ylamino)-4-oxobut-2-enoic acid], the EC50 stood at 405 nM.
As for `Cc1ccc(CC(CC(=O)O)C(=O)N(C)c2nc(-c3ccccc3Cl)cs2)cc1` (centres unmarked) [Compound 110, 4-((4-(2-chlorophenyl)thiazol-2-yl)(methyl)amino)-3-(4-methylbenzyl)-4-oxobutanoic acid], the figure is 452 nM; as for `O=C(O)C[C@@H](Cc1cccc(F)c1)C(=O)Nc1nc(-c2ccccc2Cl)cs1` [Compound 93, (R)-4-(4-(2-chlorophenyl)thiazol-2-ylamino)-3-(3-fluorobenzyl)-4-oxobutanoic acid], 493 nM.
As for `CN(C(=O)[C@H]1CCCC[C@H]1C(=O)O)c1nc(-c2ccccc2Cl)cs1` (relative stereo) [Compound 101, cis-2-((4-(2-chlorophenyl)thiazol-2-yl)(methyl)carbamoyl)cyclohexanecarboxylic acid], the figure is 67 nM.
As for `CN(C(=O)[C@@H](CC(=O)O)Cc1ccccc1)c1nc(-c2ccccc2-c2ccc(Cl)cc2)cs1` [Compound 149, (R)-3-benzyl-4-((4-(4′-chloro-[1,1′-biphenyl]-2-yl)thiazol-2-yl)(methyl)amino)-4-oxobutanoic acid], the figure is 225 nM; as for `COc1ncc(-c2ccc(Cl)cc2-c2csc(N(C)C(=O)[C@@H](CC(=O)O)Cc3ccccc3)n2)cc1Cl` [Compound 222, (R)-3-benzyl-4-((4-(5-chloro-2-(5-chloro-6-methoxypyridin-3-yl)phenyl)thiazol-2-yl)(methyl)amino)-4-oxobutanoic acid], 102 nM; as for `CN(C(=O)[C@@H](CC(=O)O)Cc1ccccc1)c1nc(-c2ccccc2Cl)ns1` [Compound 83, (R)-3-benzyl-4-((3-(2-chlorophenyl)-1,2,4-thiadiazol-5-yl)(methyl)amino)-4-oxobutanoic acid], 98 nM.
Regarding `NC(=O)CN(C(=O)[C@@H](CC(=O)O)Cc1ccccc1)c1nc(-c2ccccc2Cl)cs1` [Compound 121, (R)-4-((2-amino-2-oxoethyl)(4-(2-chlorophenyl)thiazol-2-yl)amino)-3-benzyl-4-oxobutanoic acid], the EC50 came to 766 nM.
As for `N#Cc1ccc(-c2csc(NC(=O)[C@@H](CC(=O)O)Cc3ccccc3)n2)cc1` [Compound 8, (R)-3-benzyl-4-(4-(4-cyanophenyl)thiazol-2-ylamino)-4-oxobutanoic acid], the figure is 563 nM; as for `O=C(O)C[C@@H](Cc1ccccc1)C(=O)Nc1cc(-c2cccc(C(F)(F)F)c2)n[nH]1` [Compound 203, (R)-3-benzyl-4-oxo-4-((3-(3-(trifluoromethyl)phenyl)-1H-pyrazol-5-yl)amino)butanoic acid], 1780 nM.
With `CN(C(=O)C(CC(=O)O)CC1CCCCC1)c1nc(-c2ccccc2Cl)cs1` (centres unmarked) [Compound 103, 4-((4-(2-chlorophenyl)thiazol-2-yl)(methyl)amino)-3-(cyclohexylmethyl)-4-oxobutanoic acid] the figure was 137 nM.
As for `COc1ccc(-c2ccccc2-c2csc(N(C)C(=O)[C@@H](CC(=O)O)CC3CCOCC3)n2)cn1` [Compound 160, (R)-4-((4-(2-(6-methoxypyridin-3-yl)phenyl)thiazol-2-yl)(methyl)amino)-4-oxo-3-((tetrahydro-2H-pyran-4-yl)methyl)butanoic acid], the figure is 244 nM.
`O=C(O)C1CC=CCC1C(=O)Nc1nc(-c2ccccc2Cl)cs1` (centres unmarked) [Compound 1, 6-(4-(2-chlorophenyl)thiazol-2-ylcarbamoyl)cyclohex-3-enecarboxylic acid]: the EC50 turned out to be 109 nM.
As to `CN(C(=O)[C@@H](CC(=O)O)Cc1ccccc1)c1nc(-c2ccccc2-c2ccc(N3CCOCC3)nc2)cs1` [Compound 133, (R)-3-benzyl-4-(methyl(4-(2-(6-morpholinopyridin-3-yl)phenyl)thiazol-2-yl)amino)-4-oxobutanoic acid], the EC50 came to 241 nM.
`COc1ncc(-c2ccc(Cl)cc2-c2csc(N(C(=O)[C@@H](CC(=O)O)CC3CCCC3)C3CC3)n2)cc1F` [Compound 224, (R)-4-((4-(5-chloro-2-(5-fluoro-6-methoxypyridin-3-yl)phenyl)thiazol-2-yl)(cyclopropyl)amino)-3-(cyclopentylmethyl)-4-oxobutanoic acid]: the EC50 was 27 nM.
Take `CCCC[C@H](CC(=O)O)C(=O)Nc1nc(-c2ccccc2Cl)cs1` [Compound 16, (R)-3-(4-(2-chlorophenyl)thiazol-2-ylcarbamoyl)heptanoic acid]: the EC50 came to 389 nM.
Take `CN(C(=O)C(CC(=O)O)CC1CC1)c1nc(-c2ccccc2Cl)cs1` (centres unmarked) [Compound 113, 4-((4-(2-chlorophenyl)thiazol-2-yl)(methyl)amino)-3-(cyclopropylmethyl)-4-oxobutanoic acid]: the EC50 came to 226 nM.
With `C[C@@H](c1ccccc1)[C@H](CC(=O)O)C(=O)N(C)c1nc(-c2ccccc2Cl)cs1` [Compound 106, (3S ,4R)-3-((4-(2-chlorophenyl)thiazol-2-yl)(methyl)carbamoyl)-4-phenylpentanoic acid] the figure was 216 nM.
With `O=C(O)C[C@@H](Cc1ccccc1)C(=O)Nc1nc(-c2cccc(C(F)(F)F)c2)cs1` [Compound 13, (R)-3-benzyl-4-oxo-4-(4-(3-(trifluoromethyl)phenyl)thiazol-2-ylamino)butanoic acid] the figure was 875 nM; with `CN(C(=O)[C@@H](CC(=O)O)Cc1ccccc1)c1nc(-c2ccccc2-c2ccc(F)nc2)cs1` [Compound 119, (R)-3-benzyl-4-((4-(2-(6-fluoropyridin-3-yl)phenyl)thiazol-2-yl)(methyl)amino)-4-oxobutanoic acid], 421 nM.
With `O=C(Nc1nc(-c2ccccc2Cl)cs1)[C@H]1CC=CC[C@H]1C(=O)O` (relative stereo) [Compound 98, cis-6-(4-(2-chlorophenyl)thiazol-2-ylcarbamoyl)cyclohex-3-enecarboxylic acid] the figure was 113 nM.
As to `COc1ccc(-c2ccccc2-c2csc(N(C)C(=O)[C@@H](CC(=O)O)Cc3ccccc3)n2)cc1` [Compound 129, (R)-3-benzyl-4-((4-(4′-methoxy-[1,1′-biphenyl]-2-yl)thiazol-2-yl)(methyl)amino)-4-oxobutanoic acid], the EC50 was found to be 858 nM.
